Source: US20100168228A1, “NOVEL CHEMOTHERAPEUTIC AGENTS AGAINST INFLAMMATION AND CANCER” (RELIANCE LIFE SCIENCES PVT. LTD., priority 2006, published 2010)

Legend:
[1] = system: TNFα; test: Bioassay of TNFα production by LPS activated RAW 264.7 macrophages using L929 cell line; format: cell-based; details: Mus musculus; L929 + ActD + supernatant from LPS + compound (10 μM) treated RAW 264.7 macrophage; crystal violet; mean ± S.D. of triplicate; read-out: PERCENTAGE CELL SURVIVAL ± S.D.
Protocol: Measurement of TNFα in culture medium or supernatant is performed using immunoassay and bioassay. Bioassay was used for the measurement of bioactive TNFα production in the culture medium.
TNFα secretion into the medium by LPS activated macrophage was assayed using L929 tumorigenic murine cells (ATCC) specifically sensitive to TNFα. L929 cell cytotoxicity assay was performed by a modified method (Sano et al., The Journal of Immunology, 1999, 163: 387-395 The Journal of Immunology, 1999, 163: 387-395) based on that described elsewhere (Flick D A, Gifford G E. J Immunol Methods. 1984 Mar. 30; 68(1-2): 167-175). Briefly, the L929 cells (log phase cells) were seeded into a flat bottom 96 well plates (6×10^4/well) in 100 μl volume of RPMI 1640 containing 2% FCS and incubated overnight at 37° C. in a 5% CO2 incubator. A working dilution of the culture supernatant collected from LPS (200 ng/ml) activated macrophage in a volume of 100 μl per well was first tested to obtain 70-75% cytotoxicity equivalent to […] of recombinant TNFα standard to the TNFα sensitive L929 cell line. After incubation of the L929 cells appropriate fixed dilution of the culture supernatant collected from the compound treated (10 μM) wells, containing the LPS stimulated macrophages in a volume of 100 μl with 2 μg/ml Actinomycin D (Act D) was taken and added to the L929 cells and the cells were incubated at room temperature for 15 min followed by 18 h incubation at 37° C. overnight with 5% CO2. On the next day the medium was removed and the cells were stained with 0.2% (w/v) crystal violet for 10 minutes. The wells were gently rinsed with water, and 33% acetic acid (100 μl/well) was added to extract the retained crystal violet. The absorbance at 570 nm was finally measured.
Tumor necrosis factor-α can cause direct cytotoxicity to the lung fibroblast cell line (L929). Bioassay of TNF α is designated on the basis of this cytotoxicity of TNF α, which can be used for the identification of murine TNF α activity in tissue culture supernatants. Culture supernatant collected from the synthetic molecules treated well containing LPS stimulated macrophage modulated the extent of cytotoxicity to the L929 cells (see Table 1).

[2] = system: RAW 264.7 cells; test: Nitrite quantification (Griess) in LPS stimulated macrophages; format: cell-based, mouse; details: RAW 264.7 + LPS (200 ng/ml) + 10 μM compound, 24 h; LPS + DMSO control 14.560, basal 0.782
Protocol: NO2^− accumulation was used as an indicator of Nitric Oxide (NO) production in the medium as described previously (Green et al., 1982 Anal Biochem 126, 131-138). […] The isolated supernatants were mixed with an equal volume of Griess reagent (1% sulfanilamide, 0.1% naphthylenediamine dihydrochloride, and 2% phosphoric acid) and incubated at room temperature for 15 min. NaNO2 was used to generate a standard curve, and nitrite production was determined by measuring the optical density at 540 nm.
To estimate the anti-inflammatory effects of all the synthetic molecules listed in this study, we measured the accumulation of nitrite, the stable metabolite of NO, in the culture media using Griess reagent.
To investigate the effect of CAMVE on NO production, we measured the accumulation of nitrite, the stable metabolite of NO, in the culture media using Griess reagent. To investigate the effect of CAMVE on NO production, Raw 264.7 cells, pretreated with indicated concentrations of CAMVE for 1 h were incubated with LPS (250 ng/ml) for 24 h.

SMILES | viability at 10 µM [1] | CONCENTRATION OF NITRITE μM ± SD [2]
COC(=O)c1ccc(OC(=O)c2cc(O)c(O)c(O)c2)c(OC)c1 [compound 26, 2-methoxy-4-(methoxycarbonyl)phenyl 3,4,5-trihydroxybenzoate] | 58.8 ± 2.15% | 6.138 ± 0.567 µM
COc1cc([C@@H]2Oc3c(O)cc(/C=C/C(=O)O)cc3[C@H]2C(=O)O)ccc1O [compound 28, 5-[(E)-2-carboxyvinyl]-7-hydroxy-2β-(4-hydroxy-3-methoxyphenyl)-2,3-dihydro-1-benzofuran-3α-carboxylic acid] | 66.4 ± 1.11% | 7.604 ± 0.204 µM
